We go through 1 molecule from patent US8535740B2, “Compositions from Nigella sativa” (priority 2002, dated 2013).

In brackets after ≈: the same amount, converted by molar mass.

For assay [1], the system named is iNOS-mediated NO biosynthesis in 3T3-L1 adipocytes. Briefly: LTI cytokine-stimulated NO biosynthesis in 3T3-L1 adipocytes. The format is cell-based, murine. The note with it: Mus musculus, value computed on the basis of TQ content, LPS/TNFα/IFγ stimulation 20 hours, (95% confidence interval), read-out: Median Inhibitory Concentration for iNOS-mediated NO biosynthesis, 3T3-L Adipocytes. How it is done: Cell culture and treatment-The murine fibroblast cell line 3T3-L1 was purchased from the American Type Culture Collection (Manassas, Va.) and sub-cultured according to instructions from the supplier. Prior to experiments, cells were cultured in DMEM containing 10% FBS-HI added 50 units penicillin/ml and 50 μg streptomycin/ml, and maintained in log phase prior to experimental setup. Cells were grown in a 5% CO2 humidified incubator at 37° C. Components of the pre-confluent medium included: (1) 10% FBS/DMEM (Fetal Bovine Serum/Dulbecco's Modified Eagle's Medium) containing 4.5 g glucose/L; (2) 50 U/ml penicillin; and (3) 50 μg/ml streptomycin. Growth medium was made by adding 50 ml of heat inactivated FBS and 5 ml of penicillin/streptomycin to 500 ml DMEM. This medium was stored at 4° C. Before use, the medium was warmed to 37° C. in a water bath. […] cells were seeded at an initial density of 6×10^4 cells/cm^2 in 24-well plates. […] Determination of nitrite in waters by microplate fluorescence spectroscopy and HPLC with fluorescence detection. […] After a reaction time of 30 minutes at ambient temperature, the fluorescence was read with 485 nm excitation filter and a 530 nm emission filter in a Packard Fluorocount spectrofluorometer (Model #BF10000, Meridan, Conn.). […] Quantitative analysis of dose-effect relationships: the combined effects of multiple drugs or enzyme inhibitors.

For another assay, the system named is Caco-2 monolayers. In words: LPS/H2O2-mediated loss of transepithelial electrical resistance in Caco-2 monolayers. The class given is cell-based, human. The source says:
Caco-2 Cells—The protocol for growing and differentiation the human Caco-2 colon andenocarcinoma cells was a modification of Protocol 3 as described by Yamashita et al. [Yamashita, S., Konishi, K., Yamazaki, Y., Taki, Y., Sakane, T., Sezaki, H., and Furuyama, Y. (2002) New and better protocols for a short-term Caco-2 cell culture system, J Pharm Sci 91, 669-679]. Caco-2 Human Colon Adenocarcinoma cells were obtained from ATCC (Rockville, Md.; catalog #HTB-37) and maintained in a growth media: DMEM (Dulbecco's Modified Eagles Medium 1×) containing L-glutamine, glucose; Cellgro catalog #35-010CV with the following additions: (1) Penicillin (5,000 IU/mL)/Streptomycin (5,000 μg/mL) Cellgro catalog #30-001C1, (2) 10% FBS—Fetal Bovine Serum, Characterized; Hyclone catalog #SH30071.3, and (3) 1% NEAA—Non Essential Amino Acids; Cellgro catalog #25-025-CI; cells were cultured at 37 C in a humidified air-5% CO2 atmosphere in T175 flasks.
Differentiation of Caco-2 cells to intestinal epithelial cells—BIOCOAT^R HTS Caco-2 Assay System kits (Becton Dickinson, N.J.; catalog #354801) consisting of 24-well fibrillar collagen coated inserts and feeder trays were used in all experiments and plated as follows. Media was removed from the T175 flasks and cells were washed with 10 mLs PBS (phosphate buffered saline 1× without Ca^++, without Mg^++; Cellgro #25-053-CI). […]

As for `CC1=CC(=O)C(C(C)C)=CC1=O` [Thymoquinone (Sigma), thymoquinone], in assay [1], the IC50 came to 1.9 µg/mL (≈ 11.6 µM). The “Relative Loss of TEER” value in the assay on Caco-2 monolayers (10 uM H2O2 + 50 μg/mL LPS, three hours, positive control set to 100, each material at its tabulated concentration (TQ 5.0, NS8 0.11, NS9 0.99, NS10 0.012, NSSpent#2 0.0005 μg TQ equivalents/mL; Spent#1 5 μg/mL)) was 111. The “effect on LPS/H2O2-mediated loss of TEER” value with Caco-2 monolayers (concentrations of Table 6) is listed as “no effect”.
